Data as given in PMC8222254, “Self-assembly of an anion receptor with metal-dependent kinase inhibition and potent in vitro anti-cancer properties” (Nature Communications, 2021).
Where “and” joins values, the source holds several entries; their conditions need not be identical. Equal values may be shown once. Read-outs that look alike come from different tables or passages of the source.

How the values were obtained:
Experiment in all cases: Chemosensitivity, 96 h continuous exposure, MTT assay;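 on SI (NPI): adult human brain neural progenitor non-cancer cells from an epilepsy surgery patient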;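 on Selectivity Index using the NPI non-cancer cell line: adult human brain neural progenitor non-cancer cells from an epilepsy surgery patient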
Format in all cases: cell-based, human
[1] = test system: BxPC3;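 on SI (NPI): adult human brain neural progenitor non-cancer cells from an epilepsy surgery patient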;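 on Selectivity Index using the NPI non-cancer cell line: adult human brain neural progenitor non-cancer cells from an epilepsy surgery patient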
Summary of the method: (§1)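 IC50 is the concentration giving 50% growth reduction, derived from dose-response curves of MTT absorbance at 540 nm. Before dosing, lines were plated at 2 × 10^3 cells/well, GBM1 stem-like cells at 3 × 10^3/well, overnight at 37 °C; compound exposure lasted 96 h without interruption, vehicle 0.2% DMSO.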

[2] = test system: A549
Summary of the method: as §1

[3] = test system: PSN1
Summary of the method: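 Cells were seeded overnight at 37 °C (2 × 10^3/well; GBM1 at 3 × 10^3/well on poly-L-ornithine/laminin in Neurobasal with hFGF/rhEGF), then exposed to compound concentration ranges for 96 h. Viability was read by MTT (4 h, formazan in DMSO, A540) and IC50 taken from dose–response curves.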

[4] = test system: DLD-1
Summary of the method: as §1

[5] = test system: HT-29
Summary of the method: as §1

[6] = test system: ARPE-19 non-cancer cells
Summary of the method: as §1

[7] = test system: MCF10A non-cancer cells
Summary of the method: as §1

Question: `[Cu+2].[Cu+2].[Cu+2].c1ccc(-c2csc(NCCN(CCNc3nc(-c4ccccn4)cs3)CCNc3nc(-c4ccccn4)cs3)n2)nc1.c1ccc(-c2csc(NCCN(CCNc3nc(-c4ccccn4)cs3)CCNc3nc(-c4ccccn4)cs3)n2)nc1` [[L2Cu3]6+] was tested. Which IC50 ([1]; BXPC3, mean of replicates, read-out: Mean IC50) did it give?
Answer: 293 nM

Question: And the IC50 ([1]; BXPC3, read-out: Mean IC50 values)?
Answer: 293 nM

Question: What about the IC50 ([1]; BxPC3, 96 h, MTT, individual run, read-out: IC50 values for each replicate) of the same compound?
Answer: 226 nM and 267 nM and 443 nM and 237 nM

Question: And the IC50 ([1]; BxPC3, 96 h, MTT, mean of at least 3 independent experiments, read-out: Mean IC50)?
Answer: 293 nM

Question: What about the “Selectivity index (ARPE19)” value ([1]; IC50 ARPE-19 / IC50 BXPC3) of the same compound?
Answer: 179.62

Question: And the “Selectivity index (MCF10A)” value ([1]; IC50 MCF10A / IC50 BXPC3)?
Answer: 164.71

Question: What about the “Selectivity Index using the NPI non-cancer cell line” value ([1]; IC50 NP1 / IC50 BXPC3) of the same compound?
Answer: 147.06

Question: And the “SI (ARPE19)” value ([1]; mean IC50 ARPE-19 / mean IC50 BxPC3)?
Answer: 179.62

Question: What about the “SI (MCF10A)” value ([1]; mean IC50 MCF10A / mean IC50 BxPC3) of the same compound?
Answer: 164.71

Question: And the “SI (NPI)” value ([1]; mean IC50 NP1 / mean IC50 BxPC3)?
Answer: 147.06

Question: And the “Relative potency (+ anion to no anion), Ratio + anion:no anion” value (“Relative potency … Ratio + anion:no anion” below) ([1]; ratio of IC50, BXPC3)?
Answer: 1

Question: And the “Selectivity indices relative to ARPE-19, Ratio + anion:no anion” value ([1]; ratio of SI (ARPE-19), BXPC3)?
Answer: 1

Question: And the “Selectivity indices relative to MCF10A, Ratio + anion:no anion” value ([1]; ratio of SI (MCF 10A), BXPC3)?
Answer: 1

Question: And the IC50 ([2]; A549, 96 h, MTT, individual run, read-out: IC50 values for each replicate)?
Answer: 256 nM and 189 nM and 254 nM

Question: What about the IC50 ([2]; A549, 96 h, MTT, mean of at least 3 independent experiments, read-out: Mean IC50) of the same compound?
Answer: 233 nM

Question: And the IC50 ([2]; A549, mean of replicates, read-out: Mean IC50)?
Answer: 233 nM

Question: And the IC50 ([2]; A549, read-out: Mean IC50 values)?
Answer: 233 nM

Question: And the “Selectivity index (ARPE19)” value ([2]; IC50 ARPE-19 / IC50 A549)?
Answer: 225.88

Question: And the “Selectivity index (MCF10A)” value ([2]; IC50 MCF10A / IC50 A549)?
Answer: 207.12

Question: What about the “Selectivity Index using the NPI non-cancer cell line” value ([2]; IC50 NP1 / IC50 A549) of the same compound?
Answer: 184.94

Question: And the “SI (ARPE19)” value ([2]; mean IC50 ARPE-19 / mean IC50 A549)?
Answer: 225.88

Question: What about the “SI (MCF10A)” value ([2]; mean IC50 MCF10A / mean IC50 A549) of the same compound?
Answer: 207.12

Question: What about the “SI (NPI)” value ([2]; mean IC50 NP1 / mean IC50 A549) of the same compound?
Answer: 184.94

Question: And the “Relative potency … Ratio + anion:no anion” value ([2]; ratio of IC50, A549)?
Answer: 1

Question: What about the “Selectivity indices relative to ARPE-19, Ratio + anion:no anion” value ([2]; ratio of SI (ARPE-19), A549) of the same compound?
Answer: 1

Question: And the “Selectivity indices relative to MCF10A, Ratio + anion:no anion” value ([2]; ratio of SI (MCF 10A), A549)?
Answer: 1

Question: And the “Selectivity index (ARPE19)” value ([3]; IC50 ARPE-19 / IC50 PSN1)?
Answer: 8.16

Question: And the “Selectivity index (MCF10A)” value ([3]; IC50 MCF10A / IC50 PSN1)?
Answer: 7.48

Question: What about the “Selectivity Index using the NPI non-cancer cell line” value ([3]; IC50 NP1 / IC50 PSN1) of the same compound?
Answer: 6.68

Question: And the IC50 ([3]; PSN1, 96 h, MTT, individual run, read-out: IC50 values for each replicate)?
Answer: 6270 nM and 6080 nM and 7010 nM

Question: And the IC50 ([3]; PSN1, 96 h, MTT, mean of at least 3 independent experiments, listed as [L2Cu3]^6+, read-out: Mean IC50)?
Answer: > 1000 nM

Question: What about the IC50 ([3]; PSN1, 96 h, MTT, mean of at least 3 independent experiments, read-out: Mean IC50) of the same compound?
Answer: 6450 nM

Question: And the IC50 ([3]; PSN1, mean of replicates, read-out: Mean IC50)?
Answer: 6450 nM

Question: What about the IC50 ([3]; PSN1, read-out: Mean IC50 values) of the same compound?
Answer: 6450 nM

Question: What about the “SI (ARPE19)” value ([3]; mean IC50 ARPE-19 / mean IC50 PSN1) of the same compound?
Answer: 8.16

Question: And the “SI (MCF10A)” value ([3]; mean IC50 MCF10A / mean IC50 PSN1)?
Answer: 7.48

Question: And the “SI (NPI)” value ([3]; mean IC50 NP1 / mean IC50 PSN1)?
Answer: 6.68

Question: And the “Relative potency … Ratio + anion:no anion” value ([3]; ratio of IC50, PSN1)?
Answer: 1

Question: And the “Selectivity indices relative to ARPE-19, Ratio + anion:no anion” value ([3]; ratio of SI (ARPE-19), PSN1)?
Answer: 1

Question: And the “Selectivity indices relative to MCF10A, Ratio + anion:no anion” value ([3]; ratio of SI (MCF 10A), PSN1)?
Answer: 1

Question: And the IC50 ([4]; DLD-1, 96 h, MTT, mean of at least 3 independent experiments, read-out: Mean IC50)?
Answer: 132 nM

Question: What about the IC50 ([4]; DLD-1, mean of replicates, read-out: Mean IC50) of the same compound?
Answer: 132 nM

Question: And the IC50 ([4]; DLD-1, read-out: Mean IC50 values)?
Answer: 132 nM

Question: And the “Selectivity index (ARPE19)” value ([4]; IC50 ARPE-19 / IC50 DLD-1)?
Answer: 398.71

Question: What about the “Selectivity index (MCF10A)” value ([4]; IC50 MCF10A / IC50 DLD-1) of the same compound?
Answer: 365.61

Question: What about the “Selectivity Index using the NPI non-cancer cell line” value ([4]; IC50 NP1 / IC50 DLD-1) of the same compound?
Answer: 326.44

Question: And the “SI (ARPE19)” value ([4]; mean IC50 ARPE-19 / mean IC50 DLD-1)?
Answer: 398.71

Question: What about the “SI (MCF10A)” value ([4]; mean IC50 MCF10A / mean IC50 DLD-1) of the same compound?
Answer: 365.61

Question: And the “SI (NPI)” value ([4]; mean IC50 NP1 / mean IC50 DLD-1)?
Answer: 326.44

Question: What about the “Relative potency … Ratio + anion:no anion” value ([4]; ratio of IC50, DLD-1) of the same compound?
Answer: 1

Question: What about the “Selectivity indices relative to ARPE-19, Ratio + anion:no anion” value ([4]; ratio of SI (ARPE-19), DLD-1) of the same compound?
Answer: 1

Question: And the “Selectivity indices relative to MCF10A, Ratio + anion:no anion” value ([4]; ratio of SI (MCF 10A), DLD-1)?
Answer: 1

Question: What about the IC50 ([5]; HT29, mean of replicates, read-out: Mean IC50) of the same compound?
Answer: 213 nM

Question: And the IC50 ([5]; HT29, read-out: Mean IC50 values)?
Answer: 214 nM

Question: And the IC50 ([5]; HT-29, 96 h, MTT, individual run, read-out: IC50 values for each replicate)?
Answer: 184 nM and 210 nM and 273 nM and 226 nM and 174 nM

Question: What about the IC50 ([5]; HT-29, 96 h, MTT, mean of at least 3 independent experiments, read-out: Mean IC50) of the same compound?
Answer: 214 nM

Question: And the “Selectivity index (ARPE19)” value ([5]; IC50 ARPE-19 / IC50 HT29)?
Answer: 245.93

Question: And the “Selectivity index (MCF10A)” value ([5]; IC50 MCF10A / IC50 HT29)?
Answer: 225.51

Question: And the “Selectivity Index using the NPI non-cancer cell line” value ([5]; IC50 NP1 / IC50 HT29)?
Answer: 201.36

Question: What about the “SI (ARPE19)” value ([5]; mean IC50 ARPE-19 / mean IC50 HT-29) of the same compound?
Answer: 245.93

Question: And the “SI (MCF10A)” value ([5]; mean IC50 MCF10A / mean IC50 HT-29)?
Answer: 225.51

Question: And the “SI (NPI)” value ([5]; mean IC50 NP1 / mean IC50 HT-29)?
Answer: 201.36

Question: What about the “Relative potency … Ratio + anion:no anion” value ([5]; ratio of IC50, HT29) of the same compound?
Answer: 1

Question: And the “Selectivity indices relative to ARPE-19, Ratio + anion:no anion” value ([5]; ratio of SI (ARPE-19), HT29)?
Answer: 1

Question: What about the “Selectivity indices relative to MCF10A, Ratio + anion:no anion” value ([5]; ratio of SI (MCF 10A), HT29) of the same compound?
Answer: 1

Question: And the IC50 ([6]; ARPE-19, 96 h, MTT, individual run, read-out: IC50 values for each replicate)?
Answer: 49100 nM and 43800 nM and 57700 nM and 66200 nM and 46400 nM

Question: And the IC50 ([6]; ARPE-19, 96 h, MTT, mean of at least 3 independent experiments, read-out: Mean IC50)?
Answer: 52600 nM

Question: What about the IC50 ([6]; ARPE-19, mean of replicates, read-out: Mean IC50) of the same compound?
Answer: 52600 nM

Question: And the IC50 ([6]; ARPE-19 non-cancer, read-out: Mean IC50 values)?
Answer: 52600 nM

Question: What about the “Relative potency … Ratio + anion:no anion” value ([6]; ratio of IC50, ARPE-19) of the same compound?
Answer: 1

Question: What about the IC50 ([7]; MCF10A non-cancer, read-out: Mean IC50 values) of the same compound?
Answer: 48300 nM

Question: What about the IC50 ([7]; MCF10A, 96 h, MTT, individual run, read-out: IC50 values for each replicate) of the same compound?
Answer: 51900 nM and 58100 nM and 39000 nM and 43800 nM and 48500 nM

Question: What about the IC50 ([7]; MCF10A, 96 h, MTT, mean of at least 3 independent experiments, read-out: Mean IC50) of the same compound?
Answer: 48300 nM

Question: What about the IC50 ([7]; MCF10A, mean of replicates, read-out: Mean IC50) of the same compound?
Answer: 48300 nM

Question: What about the “Relative potency … Ratio + anion:no anion” value ([7]; ratio of IC50, MCF10A) of the same compound?
Answer: 1
